Experiments:
HepG2 cells = test: Oil Red O staining of neutral lipids; type: cell-based, human; settings: HepG2, acute exposure 48 h; silibinin 100 μmol/L as co-treatment with lorlatinib
Method: To confirm these findings, we employed an independent in vitro model of fatty liver disease involving non-tumorigenic HepG2 cells, which are routinely employed as an inducible fatty liver cell model to screen for therapeutic drugs to eliminate lipid accumulation.
(§1) For assessment of neutral lipid formation, cells were washed in PBS, fixed with 4% paraformaldehyde for 30 min, washed in distilled water, and then briefly incubated in 60% isopropanol. Following equilibration, cells were stained with a working solution (60%) of Oil Red O for 20 min. An Oil Red O stock solution was prepared by dissolving 0.35% w/v Oil Red O in 100 mL 100% isopropanol. HCS LipidTOX™ Green Neutral Lipid Stain (Invitrogen; Cat. #H34475) was employed as a second staining cocktail for visualization of intracellular neutral lipids. Formaldehyde fixation and preparing/using the labeling solution was carried out as per the manufacturer’s instructions.

Huh-7 cells [1] = test: UHPLC-ESI-QTOF-MS/MS lipidomics; type: cell-based, human
Excerpt: We then questioned whether lorlatinib used at concentrations efficacious against ALK-rearranged lung cancer cells but non-toxic to ALK-negative cells could promote substantial lipidome changes in Huh-7 cells (Figure 1B; Table 1). Accordingly, […], and the lipidome was characterized in a semi-targeted approach using a UHPLC-ESI-QTOF-MS/MS method, in which we matched mass spectra with commercial standards (SPLAH mix), databases such as METLIN-PCDL and Lipid MAPS (accessed on 1 July 2022), as well as corroboration of tentative lipid species upon obtaining their MS/MS spectrum. Representative chromatograms of lipidomic analyses in Huh-7 cells can be found in Figure S1.
Lipid extraction, preparation of external calibration curves, and quality control approaches were carried out as described. Samples (2 μL) were injected directly into a 1290 Infinity UHPLC system coupled with a dual Agilent jet stream ESI source to a 6550 QTOF-MS instrument (Agilent Technologies, Santa Clara, CA, USA). UHPLC-ESI-QTOF-MS conditions, data analysis and indirect quantification of selected lipid species using MassHunter Qualitative Analysis B.07.00 software (Agilent Technologies), and corroboration of the tentative characterization of compound match entities using the Lipid Maps database (www.lipidmaps.org, accessed on 1 July 2022) and targeted MS/MS acquisition on LC-QTOF-MS instrument, have been previously described in detail.
Differentially expressed lipid species from untargeted lipidomic data were analyzed by generating volcano plots indicating statistical significance versus magnitude of fold-change for each lipid species (cutoff of Benjamini–Hochberg corrected p-value < 0.05 and log2 fold-change > 1 or […]).

Huh-7 cells [2] = test: Colorimetric enzymatic quantification of cholesteryl esters and triglycerides; type: cell-based, human; settings: lorlatinib-treated (1 μmol/L) Huh-7 cells, silibinin 100 μmol/L, 48 h
Huh-7 cells [3] = test: Toxicity of the combination in long-term confluent Huh-7 cells; type: cell-based, human; settings: silibinin as high as 100 μmol/L, Huh-7 growing confluent for more than 1 month
Excerpt: Our multi-faceted approach involving computational modeling, neural network-based prediction models to classify CYP inhibition, and in vitro validation using recombinant human CYP3A4, confirms and further extends the notion that exposure to standard doses of silibinin-containing milk thistle preparations leading to relatively low peak systemic concentrations (1–10 μmol/L) are expected to be accompanied by low-risk for an inhibitory interaction of the first-pass clearance of lorlatinib at the hepatic level.

Huh-7 cells [4] = test: Oil Red O and LipidTOX staining of neutral lipids; type: cell-based, human; settings: Huh-7, chronic exposure 7 days; silibinin 10 μmol/L as co-treatment with lorlatinib
Method: We first employed a conventional index of fatty liver disease––the intracellular accumulation of neutral lipids (steatosis)––to confirm the ability of lorlatinib to trigger hypertriglyceridemia and hypercholesteremia.
as §1

[5] = standard doses of silibinin-containing milk thistle preparations ref 57; cited from earlier work
recombinant human CYP3A4 = recombinant human CYP3A4 (Homo sapiens, UniProt P08684); test: Vivid CYP450 Red screening assay (BOMR substrate, baculosomes)
Chain of recombinant human CYP3A4 (P08684 whole entry): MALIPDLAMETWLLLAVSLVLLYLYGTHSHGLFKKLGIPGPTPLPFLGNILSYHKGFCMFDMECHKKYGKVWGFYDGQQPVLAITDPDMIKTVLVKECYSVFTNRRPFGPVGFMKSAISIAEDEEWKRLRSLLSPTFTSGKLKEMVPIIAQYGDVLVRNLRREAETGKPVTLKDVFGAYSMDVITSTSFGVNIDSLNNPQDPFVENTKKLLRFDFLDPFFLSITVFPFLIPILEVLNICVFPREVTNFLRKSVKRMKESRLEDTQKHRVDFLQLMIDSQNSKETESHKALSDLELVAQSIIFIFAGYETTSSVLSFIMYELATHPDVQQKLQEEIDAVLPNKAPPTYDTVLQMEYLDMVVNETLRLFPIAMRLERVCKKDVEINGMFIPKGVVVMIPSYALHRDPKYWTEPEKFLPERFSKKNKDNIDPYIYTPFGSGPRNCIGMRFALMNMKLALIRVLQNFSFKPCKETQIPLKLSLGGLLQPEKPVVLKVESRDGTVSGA
Method: The Vivid® BOMR substrate is a blocked dye that yields a minimal fluorescence signal until metabolized by CYP3A4 into products that are highly fluorescent in aqueous solutions (Figure 5, left panel).
The stringent validation process ensures the highest quality data possible for the 10-point titration, which was performed in duplicate (n = 3). An additional two control wells for each compound concentration tested are conducted to detect autofluorescent compound interference.

With COc1cc(C2Oc3cc([C@H]4Oc5cc(O)cc(O)c5C(=O)[C@@H]4O)ccc3OC2CO)ccc1O (some centres unmarked) [silibinin] as the compound, how does the “Accumulation of neutral lipids (lipid droplets)” value (HepG2 cells) read?
Its value is “markedly fewer and smaller neutral lipid depots”.

What about the “Change of lipid species, single agent” value (Huh-7 cells [1]; Huh-7, 48 h, lorlatinib 1 μmol/L, silibinin 100 μmol/L) of the same compound?
Its value is “significantly lowered the baseline abundance of many ChoE species”.

And the “Effect of co-treatment on lorlatinib-induced rise of lipid species” value (Huh-7 cells [1]; Huh-7, silibinin 100 μmol/L with lorlatinib 1 μmol/L, 48 h)?
The value was “completely blunted the significant lorlatinib-induced rise in numerous ChoE and TG/DG species”.

What about the “Accumulation of cholesterol esters and triglycerides” value (Huh-7 cells [2]) of the same compound?
The value was “inhibit the accumulation of cholesterol esters and triglycerides”.

What about the “Toxic effects of the combination with lorlatinib” value (Huh-7 cells [3]) of the same compound?
Its value is “failed to observed significant toxic effects”.

And the “Accumulation of neutral lipids (lipid droplets)” value (Huh-7 cells [4])?
Its value is “notably decreased the quantity and size of the lipid droplets”.

What about the Peak systemic concentrations [5] of the same compound?
Its Peak systemic concentrations is 1 to 10 µmol/L.

With CC(C)c1nc(N(C)S(C)(=O)=O)nc(-c2ccc(F)cc2)c1/C=C/[C@@H](O)C[C@@H](O)CC(=O)O [rosuvastatin] as the compound, how does the IC50 (recombinant human CYP3A4) read?
The IC50 was > 300 µM.

— PMC9456400 (International Journal of Molecular Sciences, 2022)
